In ChEMBL document CHEMBL5360547 (Eur J Med Chem, 2023) one finds Activity data, which are given here for 26 compounds.

Data set [1] relates to Cortical neurone. The data set can be described thus: Cytotoxicity against primary C57BL/6J E14-17 mouse Cortical neuron assessed as decrease in cell viability at 10 uM incubated for 24 hrs by CCK-8 assay relative to control. The data set is classed as toxicity, cell-based.
The subject of data set [2] is Cortical neurone. Description: Neuroprotective activity against oxygen glucose deprivation induced ischemic stroke model in primary C57BL/6J E14-17 mouse Cortical neurons assessed as increase in cell viability at 1 uM incubated for 24 hrs by CCK-8 assay (Rvb= 57.43 +/- 2.54 %). The data set is classed as functional. On the technique in general: Tetrazolium dyes change colour on reduction, which living cells bring about.

Data set [3] has as its system Cortical neurone. Description: Neuroprotective activity against oxygen glucose deprivation induced ischemic stroke model in primary C57BL/6J E14-17 mouse Cortical neurons assessed as increase in cell viability at 10 uM incubated for 24 hrs by CCK-8 assay (Rvb= 57.43 +/- 2.54 %). The data set is classed as functional.
Data set [4] deals with Cortical neurone. Description: Cytotoxicity against primary C57BL/6J E14-17 mouse Cortical neuron assessed as decrease in cell viability at 1 uM incubated for 24 hrs by CCK-8 assay relative to control. The data set is classed as toxicity, cell-based.

Take `Clc1ccc(CN[C@@H]2CC[C@@H](c3ccc(Cl)c(Cl)c3)c3ccccc32)cc1Cl`: the Activity in the data set with Cortical neurone [1] amounted to 105.41%; in the data set with Cortical neurone [2], 58.46%; in the data set with Cortical neurone [3] it was 55.64%; in the data set with Cortical neurone [4] it was 101.08%.

As for `CC(N[C@@H]1CC[C@@H](c2ccc(Cl)c(Cl)c2)c2ccccc21)c1ccccc1` (stereo partly drawn), the Activity was determined as 45.32% in the data set on Cortical neurone [1], 45.67% in the data set with Cortical neurone [2], 51.75% in the data set on Cortical neurone [3] and 98.48% in the data set with Cortical neurone [4].

Regarding `Clc1ccc([C@@H]2CC[C@@H](NCCN3CCNCC3)c3ccccc32)cc1Cl`, the Activity in the data set on Cortical neurone [1] is listed as 31.8%; in the data set with Cortical neurone [2] it was 56.76%; in the data set with Cortical neurone [3] it was 28.28%; with Cortical neurone [4], 90.76%.

Turning to `CN[C@@H]1CC[C@@H](c2ccc(Cl)c(Cl)c2)c2ccccc21` (racemic), the Activity worked out at 92.08% in the data set with Cortical neurone [1], 59.29% in the data set with Cortical neurone [2], 65.74% in the data set with Cortical neurone [3] and 94.5% with Cortical neurone [4].

With `CN[C@H]1CC[C@@H](c2ccc(Cl)c(Cl)c2)c2ccccc21` (racemic) [SERTRALINE], the Activity in the data set on Cortical neurone [1] is on record as 92.98%; with Cortical neurone [2] (24 h, 1 µM), 60.36%; in the data set with Cortical neurone [3] (24 h, 10 µM), 45.76%; in the data set with Cortical neurone [4], 96.32%.

`NCCN[C@@H]1CC[C@@H](c2ccc(Cl)c(Cl)c2)c2ccccc21` (relative stereo): the Activity in the data set on Cortical neurone [1] turned out to be 24.73%; with Cortical neurone [2], 24.79%; in the data set with Cortical neurone [3], 3.53%; in the data set with Cortical neurone [4], 103.68%.

Regarding `NCCCCCCN[C@@H]1CC[C@@H](c2ccc(Cl)c(Cl)c2)c2ccccc21` (relative stereo), the Activity was 22.62% in the data set on Cortical neurone [1], 3.43% with Cortical neurone [3] and 48.84% with Cortical neurone [4].

For `Clc1ccc([C@@H]2CC[C@@H](NCc3ccc4c(c3)OCO4)c3ccccc32)cc1Cl` (relative stereo), the Activity with Cortical neurone [1] is 95.94%; in the data set with Cortical neurone [2] it was 63.19%; with Cortical neurone [3], 57.62%; in the data set on Cortical neurone [4] it was 104.95%.

For the compound `Clc1ccc([C@@H]2CC[C@@H](NCc3cccc4ccccc34)c3ccccc32)cc1Cl` (relative stereo), the Activity came out at 96.52% with Cortical neurone [1], 61.36% in the data set with Cortical neurone [2], 65.01% in the data set with Cortical neurone [3] and 95.27% in the data set on Cortical neurone [4].

For `COc1ccc(CN[C@@H]2CC[C@@H](c3ccc(Cl)c(Cl)c3)c3ccccc32)cc1` (relative stereo), the Activity is 85.78% with Cortical neurone [1], 56.57% with Cortical neurone [2], 60.68% in the data set on Cortical neurone [3] and 98.78% in the data set on Cortical neurone [4].

With `CC(C)(C)OC(=O)N1CCN(CCN[C@@H]2CC[C@@H](c3ccc(Cl)c(Cl)c3)c3ccccc32)CC1` (relative stereo), the Activity with Cortical neurone [1] was found to be 93.92%; in the data set with Cortical neurone [2], 63.76%; in the data set on Cortical neurone [3], 57.97%; in the data set on Cortical neurone [4] it was 100.27%.

As for `CCCCN[C@@H]1CC[C@@H](c2ccc(Cl)c(Cl)c2)c2ccccc21` (relative stereo), the Activity with Cortical neurone [1] is reported as 94.94%; with Cortical neurone [2], 54.27%; in the data set on Cortical neurone [3], 50.99%; in the data set on Cortical neurone [4], 95.75%.

`COc1cccc(CN[C@@H]2CC[C@@H](c3ccc(Cl)c(Cl)c3)c3ccccc32)c1` (relative stereo): the Activity in the data set on Cortical neurone [1] is 97.09%; with Cortical neurone [2], 51.08%; with Cortical neurone [3] it was 47.87%; in the data set with Cortical neurone [4], 95.52%.

Take `NCCCCN[C@@H]1CC[C@@H](c2ccc(Cl)c(Cl)c2)c2ccccc21` (relative stereo): the Activity was 22.9% with Cortical neurone [1], 33.3% with Cortical neurone [2], 3.07% with Cortical neurone [3] and 90.11% in the data set on Cortical neurone [4].

Consider `Cc1ccc(CN[C@@H]2CC[C@@H](c3ccc(Cl)c(Cl)c3)c3ccccc32)cc1` (relative stereo), for which the Activity in the data set on Cortical neurone [1] is 84.46%; in the data set on Cortical neurone [2], 60.9%; in the data set with Cortical neurone [3], 59.01%; in the data set on Cortical neurone [4], 92.92%.

`FC(F)(F)c1cccc(CN[C@@H]2CC[C@@H](c3ccc(Cl)c(Cl)c3)c3ccccc32)c1` (relative stereo): the Activity was 85.87% in the data set with Cortical neurone [1], 65.74% in the data set on Cortical neurone [2], 59% in the data set with Cortical neurone [3] and 90.68% in the data set on Cortical neurone [4].

With `Clc1ccc([C@@H]2CC[C@@H](NCC3CCCCC3)c3ccccc32)cc1Cl` (relative stereo), the Activity is listed as 103.51% in the data set with Cortical neurone [1], 64.56% in the data set on Cortical neurone [2], 62.02% in the data set with Cortical neurone [3] and 100.42% in the data set on Cortical neurone [4].

Take `CCCCCC(C)N[C@@H]1CC[C@@H](c2ccc(Cl)c(Cl)c2)c2ccccc21` (relative stereo): the Activity in the data set on Cortical neurone [1] is recorded as 84.74%; with Cortical neurone [2], 58.02%; in the data set on Cortical neurone [3] it was 60.07%; in the data set with Cortical neurone [4] it was 89.48%.

Consider `Clc1ccc([C@@H]2CC[C@@H](NCCCCc3ccccc3)c3ccccc32)cc1Cl` (relative stereo), for which the Activity amounted to 94.37% in the data set with Cortical neurone [1], 57.11% with Cortical neurone [2], 58.59% with Cortical neurone [3] and 98.28% in the data set with Cortical neurone [4].

Regarding `Clc1ccc([C@@H]2CC[C@@H](NC3CC3)c3ccccc32)cc1Cl` (relative stereo), the Activity was determined as 109.93% with Cortical neurone [1], 62.49% with Cortical neurone [2], 66.66% with Cortical neurone [3] and 100.03% with Cortical neurone [4].

For `O=C(CCCCl)N[C@@H]1CC[C@@H](c2ccc(Cl)c(Cl)c2)c2ccccc21` (relative stereo), the Activity with Cortical neurone [1] stood at 84.35%; with Cortical neurone [2] it was 63.86%; in the data set on Cortical neurone [3] it was 58.31%; in the data set on Cortical neurone [4], 92.02%.

Consider `CC(C)(C)c1ccc(CN[C@@H]2CC[C@@H](c3ccc(Cl)c(Cl)c3)c3ccccc32)cc1` (relative stereo), for which the Activity with Cortical neurone [1] came to 93.23%; in the data set with Cortical neurone [2], 56.78%; in the data set with Cortical neurone [3], 60.98%; with Cortical neurone [4], 93.91%.

As to `CC(C)(C)OC(=O)NCCN[C@@H]1CC[C@@H](c2ccc(Cl)c(Cl)c2)c2ccccc21` (relative stereo), the Activity is reported as 94.48% in the data set with Cortical neurone [1], 58.81% in the data set with Cortical neurone [2], 54.41% in the data set with Cortical neurone [3] and 98.85% with Cortical neurone [4].

Take `Clc1ccc([C@@H]2CC[C@@H](NCCc3c[nH]c4ccccc34)c3ccccc32)cc1Cl` (relative stereo): the Activity in the data set on Cortical neurone [1] was found to be 96.14%; in the data set with Cortical neurone [2], 52.97%; in the data set on Cortical neurone [3], 59.42%; with Cortical neurone [4], 104.13%.

As for `CC(C)CN[C@@H]1CC[C@@H](c2ccc(Cl)c(Cl)c2)c2ccccc21` (relative stereo), the Activity with Cortical neurone [1] is reported as 73.99%; with Cortical neurone [2], 56.47%; in the data set with Cortical neurone [3], 30.22%; with Cortical neurone [4], 96.1%.

With `CCCN[C@@H]1CC[C@@H](c2ccc(Cl)c(Cl)c2)c2ccccc21` (relative stereo), the Activity was determined as 100.55% in the data set on Cortical neurone [1], 62.89% in the data set with Cortical neurone [2], 55.53% in the data set on Cortical neurone [3] and 96.43% in the data set on Cortical neurone [4].
